Test system: ^64CuCl2 (^64Cu) intestinal absorption and hepatic copper uptake
Experiment: Example 2: Copper Absorption study, oral 64Cu PET-CT in healthy subjects
Format: in vivo, human
Settings: healthy subjects; for mean SUV liver / hepatic uptake of labeled copper, comparison between treatments: 1 hour and 15 hours after oral 64Cu; for reduction of mean hepatic copper uptake: 1 hr scan post treatment, oral 64Cu, 7 days treatment
Experimental: Blood was collected at several time points to assess plasma copper kinetics. The study was carried out as a randomized, placebo-controlled intervention study. […] The study assessed the previously listed organs and the effect of anti-copper treatment by comparing the mean standard uptake value (SUV) in the organs of interest. […] The dynamic baseline scans and the subsequent static scans were compared across all treatments.

CC(C)(S)[C@@H](N)C(=O)O [penicillamine, (2S)-2-amino-3-methyl-3-sulfanylbutanoic acid, reference compound]
mean SUV liver / hepatic uptake of labeled copper, comparison between treatments: not different from placebo | reduction of mean hepatic copper uptake: approximately 25%

NCCNCCNCCN [trientine, N′-[2-(2-aminoethylamino)ethyl]ethane-1,2-diamine, reference compound]
mean SUV liver / hepatic uptake of labeled copper, comparison between treatments: significantly lower than with penicillamine | reduction of mean hepatic copper uptake: ~50%

Reference: patent US20250082674A1, “METHODS OF TREATING COPPER METABOLISM-ASSOCIATED DISEASES OR DISORDERS” (priority 2021, published 2025)
